Laboratory results as given in patent publication US20220280587A1, “MEDICAL GELS CONTAINING A QUATERNARY AMMONIUM COMPOUND, PHENOXYETHANOL, ALOE VERA JUICE, AND NATURAL SPORICIDAL MOISTURIZERS” (priority 2021, published 2022).
In brackets after ≈: the same amount, converted by molar mass.

Tests used:
Assay type in all cases: cell-based
C. botulinum spores = assay: microbe, parasite or virus in culture; conditions: for MIC / MBC: Clostridium botulinum; for MIC: read-out: Sporostatic MIC (mM); for MBC: read-out: Sporicidal MIC (mM)
P. digitatum = assay: Antifungal combination of potassium sorbate and vanillin (MIC, FIC isobologram); conditions: Penicillium digitatum
P. italicum = assay: as above; conditions: Penicillium italicum
P. glabrum = assay: as above
Pseudomonas aeruginosa = assay: Bactericidal / inhibitory concentration against Pseudomonas aeruginosa

`CC=O` [Acetaldehyde] showed an MIC (C. botulinum spores) of 0.78 mM (≈ 34.4 µg/mL).
`O=Cc1ccccc1` [Benzaldehyde] showed an MIC (C. botulinum spores) of 0.6 mM (≈ 63.7 µg/mL).
`O=CC=Cc1ccccc1` [Cinnamaldehyde] was tested, and the MIC (C. botulinum spores) was 0.78 mM (≈ 103 µg/mL).
With `CCCCCCC=O` [Hepaldehyde] the “Sporicidal MIC” value (C. botulinum spores) was >2500 mM and the “Sporostatic MIC” value (C. botulinum spores) was 0.60 mM.
`CC(C)C=O` [Isobutyraldehyde] gave an MBC (C. botulinum spores) of 39 mM (≈ 2810 µg/mL) and an MIC (C. botulinum spores) of 0.6 mM (≈ 43.3 µg/mL).
Work on `O=CCc1ccccc1` [Phenylacetaldehyde] yielded an MIC (C. botulinum spores) of 0.6 mM (≈ 72.1 µg/mL).
`O=CC(=O)c1ccccc1` [Phenylglyoxal] was tested, and the MIC (C. botulinum spores) was 0.6 mM (≈ 80.5 µg/mL).
In the case of `O=Cc1ccc2c(c1)OCO2` [Piperonal], the MIC (C. botulinum spores) is reported as 0.6 mM (≈ 90.1 µg/mL).
For `CC(=O)C=O` [Pyruvaldehyde], the “Sporicidal MIC” value (C. botulinum spores) was 156 mM and the “Sporostatic MIC” value (C. botulinum spores) was 2.44 mM.
With `CCCCC=O` [Valeraldehyde] the MIC (C. botulinum spores) was 2.44 mM (≈ 210 µg/mL).
`COc1cc(C=O)ccc1O` [Vanillin] showed an MIC (P. digitatum; potassium sorbate 0 PPM) of 1100 mg/L, an MIC (P. digitatum; potassium sorbate 50 PPM) of 300 mg/L and an MIC (P. digitatum; potassium sorbate 100 PPM) of 100 mg/L. For the same compound, the MIC (P. italicum; potassium sorbate 0 PPM) was 1100 mg/L, the MIC (P. italicum; potassium sorbate 100 PPM) was 300 mg/L and the MIC (P. italicum; potassium sorbate 150 PPM) was 100 mg/L. It also gave an MIC (P. glabrum; potassium sorbate 0 PPM) of 1200 mg/L, an MIC (P. glabrum; potassium sorbate 100 PPM) of 1100 mg/L and an MIC (P. glabrum; potassium sorbate 300 PPM) of 500 mg/L. For the same compound, the MIC (P. glabrum; potassium sorbate 500 PPM) was 100 mg/L, the MBC (C. botulinum spores) was 1.25 mM (≈ 190 µg/mL) and the MIC (C. botulinum spores) was 0.6 mM (≈ 91.3 µg/mL).
For `CCCCCC(C=O)=Cc1ccccc1` [α-Amylcinnamaldehyde], the MIC (C. botulinum spores) was 0.6 mM (≈ 121 µg/mL).
With benzalkonium chloride the “Concentration that kills Pseudomonas aeruginosa” value (Pseudomonas aeruginosa; benzalkonium chloride alone) was 0.13% and the “Concentration that kills Pseudomonas aeruginosa” value (Pseudomonas aeruginosa; when aloe vera juice is present at 10%) was 0.10%.
